# Experimental data as given in patent US8592367B2, “Nodule specific medicago peptides having antimicrobial activity and pharmaceutical compositions containing the same” (priority 2009, dated 2013).
# Entries after “also recorded” stand apart in the source; their conditions may differ. Read-outs that look alike come from different tables or passages of the source.
# Columns and labels:
# Xanthomonas 2880 [1] = experiment: CFU determination, broad spectrum activity; format: cell-based; details: 50 μg/ml, Xanthomonas 2880, untreated 10^7
# [2] = system: Pseudomonas syringae pv tomato DC3000; experiment: CFU determination, broad spectrum activity; format: cell-based; details: 50 μg/ml, Pseudomonas syringae pv tomato DC3000, untreated 10^7
# Candida albicans = experiment: Antifungal activity in 96-well microtiter plates; format: cell-based; parameters: key: +++: high sensitivity, no hyphal growth; ++: medium sensitivity; +: low sensitivity; −: no effect; details: 24 h
# Bacillus subtilis [3] = experiment: PI staining, broad spectrum activity; format: cell-based; details: 50 μg/ml
# Pseudomonas aeruginosa [4] = experiment: PI staining, broad spectrum activity; format: cell-based; details: 50 μg/ml
# [5] = system: Rhizopus stolonifer var. stolonifer; experiment: Antifungal activity in 96-well microtiter plates; format: cell-based; parameters: key: +++: high sensitivity, no hyphal growth; ++: medium sensitivity; +: low sensitivity; −: no effect; details: 24 h
# Fusarium graminearum [6] = format: cell-based; details: 50 μg/ml, same at 24 h and 48 h, FIGS. 11C and 11F
# Xanthomonas 2880 [7] = experiment: PI staining, broad spectrum activity; format: cell-based; details: 50 μg/ml
# [8] = system: Curtobacterium, flaccumfaciens; experiment: CFU determination, broad spectrum activity; format: cell-based; details: 50 μg/ml, untreated 10^9
# Staphylococcus aureus [9] = experiment: PI staining, broad spectrum activity; format: cell-based; details: 50 μg/ml
# [10] = system: Sinorhizobium meliloti AK631; experiment: CFU determination of Sinorhizobium meliloti; details: for CFU % / CFU (colony/ml): 1 hr; for CFU determination (colony formation): 3 hours, 2-3×10^6 bacteria, FIG. 2B; for CFU: Sinorhizobium meliloti (AK631), untreated 10^7; for eradication of the bacteria: from the low dose of 20 μg/ml
# Staphylococcus aureus [11] = experiment: CFU determination, broad spectrum activity; format: cell-based; details: 50 μg/ml, untreated 10^6
# Aspergillus flavus = experiment: Antifungal activity in 96-well microtiter plates; format: cell-based; parameters: key: +++: high sensitivity, no hyphal growth; ++: medium sensitivity; +: low sensitivity; −: no effect; details: 24 h
# Bacillus subtilis [12] = experiment: CFU determination, broad spectrum activity; format: cell-based; details: 50 μg/ml, untreated 10^6
# Candida crusei = experiment: Antifungal activity in 96-well microtiter plates; format: cell-based; parameters: key: +++: high sensitivity, no hyphal growth; ++: medium sensitivity; +: low sensitivity; −: no effect; details: 24 h
# Clavibacter michigense [13] = experiment: PI staining, broad spectrum activity; format: cell-based; details: 50 μg/ml
# Clavibacter michigense [14] = experiment: CFU determination, broad spectrum activity; format: cell-based; details: 50 μg/ml, untreated 10^9
# Pseudomonas aeruginosa [15] = experiment: CFU determination, broad spectrum activity; format: cell-based; details: 50 μg/ml
# Candida parapsilosis = experiment: Antifungal activity in 96-well microtiter plates; format: cell-based; parameters: key: +++: high sensitivity, no hyphal growth; ++: medium sensitivity; +: low sensitivity; −: no effect; details: 24 h
# Fusarium graminearum [16] = format: cell-based; parameters: key: +++: high sensitivity, no hyphal growth; ++: medium sensitivity; +: low sensitivity; −: no effect; details: 24 h
# [17] = system: Curtobacterium, flaccumfaciens; experiment: PI staining, broad spectrum activity; format: cell-based; details: 50 μg/ml
# [18] = system: Pseudomonas syringae pv tomato DC3000; experiment: PI staining, broad spectrum activity; format: cell-based; details: 50 μg/ml
# Aspergillus niger = experiment: Antifungal activity in 96-well microtiter plates; format: cell-based; parameters: key: +++: high sensitivity, no hyphal growth; ++: medium sensitivity; +: low sensitivity; −: no effect; details: 24 h
# [19] = system: Sinorhizobium meliloti AK631; experiment: PI staining of Sinorhizobium meliloti; details: 50 μg/ml; for PI: Sinorhizobium meliloti (AK631)
compound,measurement,setting,value
NCR247: cationic NCR peptide (RNGCIVDPRCPYQQCRRPLYCRRR; Peptide derived from Medicago truncatula),CFU,Xanthomonas 2880 [1],CFU: 0
same,CFU,[2],CFU: 0
same,"Fungal (hyphal) growth, sensitivity",Candida albicans; 25 μg/ml,+++
same,"Fungal (hyphal) growth, sensitivity",Candida albicans; 50 μg/ml,+++
same,"Fungal (hyphal) growth, sensitivity",Candida albicans; 100 μg/ml,+++
same,PI,Bacillus subtilis [3],PI: 18%
same,PI,Pseudomonas aeruginosa [4],PI: 15%
same,"Fungal (hyphal) growth, sensitivity",[5]; 25 μg/ml,+++
same,"Fungal (hyphal) growth, sensitivity",[5]; 50 μg/ml,+++
same,"Fungal (hyphal) growth, sensitivity",[5]; 100 μg/ml,+++
same,spores and hyphae development,Fusarium graminearum [6],inhibits the spores and hyphae development
same,PI,Xanthomonas 2880 [7],PI: 48%
same,CFU,[8],CFU: 0
same,PI,Staphylococcus aureus [9],PI: 30%
same,CFU %,[10]; 20 μg/ml,0%
same,CFU (colony/ml),[10]; 20 μg/ml,0 colony/ml
same,CFU %,[10]; 50 μg/ml,0%
same,CFU (colony/ml),[10]; 50 μg/ml,0 colony/ml
same,CFU determination (colony formation),[10]; 50 μg/ml,none formed colony
same,CFU,[10]; 50 μg/ml,CFU: 0
same,eradication of the bacteria,[10],able to eradicate the bacteria in less than an hour
same,CFU,Staphylococcus aureus [11],CFU: 10^5
same,"Fungal (hyphal) growth, sensitivity",Aspergillus flavus; 25 μg/ml,+++
same,"Fungal (hyphal) growth, sensitivity",Aspergillus flavus; 50 μg/ml,+++
same,"Fungal (hyphal) growth, sensitivity",Aspergillus flavus; 100 μg/ml,+++
same,CFU,Bacillus subtilis [12],CFU: 10^6
same,"Fungal (hyphal) growth, sensitivity",Candida crusei; 25 μg/ml,+++
same,"Fungal (hyphal) growth, sensitivity",Candida crusei; 50 μg/ml,+++
same,"Fungal (hyphal) growth, sensitivity",Candida crusei; 100 μg/ml,+++
same,PI,Clavibacter michigense [13],PI: 50%
same,CFU,Clavibacter michigense [14],CFU: 0
same,CFU (FIG. 10),Pseudomonas aeruginosa [15]; strain resistant to conventional antibiotics,completely eradicated
same,"Fungal (hyphal) growth, sensitivity",Candida parapsilosis; 25 μg/ml,+++
same,"Fungal (hyphal) growth, sensitivity",Candida parapsilosis; 50 μg/ml,+++
same,"Fungal (hyphal) growth, sensitivity",Candida parapsilosis; 100 μg/ml,+++
same,"Fungal (hyphal) growth, sensitivity",Fusarium graminearum [16]; 25 μg/ml,++
same,"Fungal (hyphal) growth, sensitivity",Fusarium graminearum [16]; 50 μg/ml,++
same,"Fungal (hyphal) growth, sensitivity",Fusarium graminearum [16]; 100 μg/ml,++
same,PI,[17],PI: 27%
same,PI,[18],PI: 60%
same,"Fungal (hyphal) growth, sensitivity",Aspergillus niger; 25 μg/ml,+++
same,"Fungal (hyphal) growth, sensitivity",Aspergillus niger; 50 μg/ml,+++
same,"Fungal (hyphal) growth, sensitivity",Aspergillus niger; 100 μg/ml,+++
same,PI,[19],PI: 70%
NCR055: cationic NCR peptide (VNDCIRIHCKDDFDCIENRLQVGCRLQREKPRCVNLVCRCLRR; Peptide derived from Medicago truncatula),CFU,Xanthomonas 2880 [1],CFU: 10^4
same,CFU,[2],CFU: 0
same,"Fungal (hyphal) growth, sensitivity",Candida albicans; 50 μg/ml,+++
same,"Fungal (hyphal) growth, sensitivity",Candida albicans; 100 μg/ml,+++
same,PI,Bacillus subtilis [3],PI: 100%
same,PI,Pseudomonas aeruginosa [4],PI: 10%
same,"Fungal (hyphal) growth, sensitivity",[5]; 50 μg/ml,++
same,"Fungal (hyphal) growth, sensitivity",[5]; 100 μg/ml,+++
same,PI,Xanthomonas 2880 [7],PI: 100%
same,CFU,[8],CFU: 0
same,PI,Staphylococcus aureus [9],PI: 100%
same,CFU %,[10]; 20 μg/ml,0%
same,CFU (colony/ml),[10]; 20 μg/ml,1800 colony/ml
same,CFU %,[10]; 50 μg/ml,0%
same,CFU (colony/ml),[10]; 50 μg/ml,0 colony/ml
same,CFU determination (colony formation),[10]; 50 μg/ml,none formed colony
same,CFU,[10]; 50 μg/ml,CFU: 0
same,eradication of the bacteria,[10],able to eradicate the bacteria in less than an hour
same,"Fungal (hyphal) growth, sensitivity",Aspergillus flavus; 50 μg/ml,+
same,"Fungal (hyphal) growth, sensitivity",Aspergillus flavus; 100 μg/ml,++
same,CFU,Bacillus subtilis [12],CFU: 0
same,"Fungal (hyphal) growth, sensitivity",Candida crusei; 50 μg/ml,+++
same,"Fungal (hyphal) growth, sensitivity",Candida crusei; 100 μg/ml,+++
same,PI,Clavibacter michigense [13],PI: 100%
same,CFU,Clavibacter michigense [14],CFU: 0
same,CFU,"Pseudomonas aeruginosa [15]; Pseudomonas aeruginosa, untreated 10^7",CFU: 10^5
same,"Fungal (hyphal) growth, sensitivity",Candida parapsilosis; 50 μg/ml,+++
same,"Fungal (hyphal) growth, sensitivity",Candida parapsilosis; 100 μg/ml,+++
same,"Fungal (hyphal) growth, sensitivity",Fusarium graminearum [16]; 50 μg/ml,−
same,"Fungal (hyphal) growth, sensitivity",Fusarium graminearum [16]; 100 μg/ml,++
same,PI,[17],PI: 80%
same,PI,[18],PI: 85%
same,"Fungal (hyphal) growth, sensitivity",Aspergillus niger; 50 μg/ml,++
same,"Fungal (hyphal) growth, sensitivity",Aspergillus niger; 100 μg/ml,++
same,PI staining (PI uptake),"[19]; FIG. 2A, listed as NCR55",provoked PI uptake; also recorded: comparable to heat killed bacteria or bacteria treated with polymyxin B
same,PI,[19],PI: 80%
"C[C@@H]1[C@H](O)[C@@H](C)/C=C/C=C/C=C/C=C/C=C/C=C/C=C/[C@H](O[C@@H]2O[C@H](C)[C@@H](O)[C@H](N)[C@@H]2O)C[C@@H]2O[C@](O)(C[C@@H](O)C[C@@H](O)[C@H](O)CC[C@@H](O)C[C@@H](O)CC(=O)O[C@H]1C)C[C@H](O)[C@H]2C(=O)O [AMB, Amfotericin B, reference compound]","Fungal (hyphal) growth, sensitivity",Candida albicans; 125 μg/ml,+++
same,"Fungal (hyphal) growth, sensitivity",[5]; 125 μg/ml,+++
same,"Fungal (hyphal) growth, sensitivity",Aspergillus flavus; 125 μg/ml,+++
same,"Fungal (hyphal) growth, sensitivity",Candida crusei; 125 μg/ml,+++
same,"Fungal (hyphal) growth, sensitivity",Candida parapsilosis; 125 μg/ml,+++
same,"Fungal (hyphal) growth, sensitivity",Fusarium graminearum [16]; 125 μg/ml,++
same,"Fungal (hyphal) growth, sensitivity",Aspergillus niger; 125 μg/ml,+++
